In publication PMC10237672, “Design and synthesis of novel anti-urease imidazothiazole derivatives with promising antibacterial activity against Helicobacter pylori” (PLOS ONE, 2023):
≈ marks a conversion by molar mass, not a printed value. Counter-ions that a name gives are not always drawn. Like-named read-outs stand apart in the source and are kept apart here.

Key:
Jack bean urease = molecular target: T1, Jack bean urease (Canavalia ensiformis, UniProt P07374); test: biochemical; format: biochemical
T1 construct: purchased Sigma Aldrich
T1 sequence (P07374 whole entry, looked up): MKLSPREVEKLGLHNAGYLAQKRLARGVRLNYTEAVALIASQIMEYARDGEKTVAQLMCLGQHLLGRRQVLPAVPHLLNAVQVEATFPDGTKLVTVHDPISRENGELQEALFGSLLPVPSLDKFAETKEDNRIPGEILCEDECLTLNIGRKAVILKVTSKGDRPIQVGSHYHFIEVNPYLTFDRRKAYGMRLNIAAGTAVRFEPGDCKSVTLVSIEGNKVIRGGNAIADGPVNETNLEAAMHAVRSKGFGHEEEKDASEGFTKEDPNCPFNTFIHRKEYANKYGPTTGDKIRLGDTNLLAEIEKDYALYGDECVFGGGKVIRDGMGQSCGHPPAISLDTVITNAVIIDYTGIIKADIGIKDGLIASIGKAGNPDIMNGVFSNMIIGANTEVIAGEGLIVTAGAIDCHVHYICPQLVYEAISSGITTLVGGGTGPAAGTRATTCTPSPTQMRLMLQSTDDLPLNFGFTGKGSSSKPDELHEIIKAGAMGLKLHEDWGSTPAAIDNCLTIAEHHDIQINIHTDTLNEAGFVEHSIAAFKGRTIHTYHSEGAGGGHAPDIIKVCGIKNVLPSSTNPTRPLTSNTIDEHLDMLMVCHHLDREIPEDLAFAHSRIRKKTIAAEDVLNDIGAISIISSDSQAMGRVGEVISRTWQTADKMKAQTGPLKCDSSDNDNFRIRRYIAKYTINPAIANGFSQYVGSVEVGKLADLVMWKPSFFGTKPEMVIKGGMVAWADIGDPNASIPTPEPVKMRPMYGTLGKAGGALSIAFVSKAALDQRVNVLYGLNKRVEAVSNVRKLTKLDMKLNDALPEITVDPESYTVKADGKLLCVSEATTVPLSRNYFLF
Procedure: Reaction mixture comprising 40 μL of buffer (K2HPO4: 10 mmol/L, urea: 100 mmol/L, […]: 10 mmol/L, EDTA: 1 /L mmol, pH = 8.2) and 5 U/mL enzyme (10 μL) were pre-incubated with 10 μL of synthesized compounds (1 mM) and substrate urea (1 mM) were incubated at room temperature in 96 well plate for half an hour. After the incubation at room temperature, absorbance was taken at specific wavelength (630 nm) employing a microplate reader (Bio-Tek, USA) with R1 and R2 reagents in each well. The reactions were measured in triplicate fashion. To calculate the inhibition percentage following equation was used.
Percentage inhibition = 100 –[tested compound/control compound] × 100.

H. pylori [1] = test: MIC against H. pylori, agar dilution method; format: cell-based, Helicobacter pylori; settings: Helicobacter pylori, ATCC43504; H. pylori ATCC 43504, agar dilution; read-out: MIC value against H. pylori ± SEM
H. pylori [2] = test: IC50 against H. pylori, micro broth dilution test; format: cell-based, Helicobacter pylori; settings: Helicobacter pylori, ATCC43504; H. pylori ATCC 43504, micro broth dilution, 72 h, OD 600 nm; read-out: IC50 value against H. pylori ± SEM
Caco-2 A-B permeability = format: in vitro ADME; settings: human, pH 6.5–7.4, test concentration = MIC against H. pylori (19-50 μM), reference drugs 10 μM
Procedure: The apparent permeability coefficient (Papp) of the test compound was calculated as follows: Papp(cm/s)=VR*CR,end/Δt*1/A*(CD,mid‐CR,mid) where VR is the volume of the receiver chamber. CR,end is the concentration of the test compound in the receiver chamber at the end time point, Δt is the incubation time and A is the surface area of the cell monolayer. CD,mid is the calculated mid-point concentration of the test compound in the donor side, which is the mean value of the donor concentration at time 0 minute and the donor concentration at the end time point. CR,mid is the mid-point concentration of the test compound in the receiver side, which is one half of the receiver concentration at the end time point. Concentrations of the test compound were expressed as peak areas of the test compound.
The recovery of the test compound was calculated as follows: Recovery(%)=VD*CD,end+VR*CR,end/VD*CD0*100 where VD and VR are the volumes of the donor and receiver chambers, respectively. CD,end is the concentration of the test compound in the donor sample at the end time point. CR,end is the concentration of the test compound in the receiver sample at the end time point. CD0 is the concentration of the test compound in the donor sample at time zero. Concentrations of the test compound are expressed as peak areas of the test compound.
Fluorescein was used as the cell monolayer integrity marker. Fluorescein permeability assessment (in the A-B direction at pH 7.4 on both sides) was executed after the permeability assay for the test compound.

SMILES | melting point | IC50 (Jack bean urease) | MIC (H. pylori [1]) | IC50 (H. pylori [2]) | Papp (Caco-2 A-B permeability) | recovery (Caco-2 A-B permeability) | IC50 (Jack bean urease; indophenol method, triplicate, thiourea positive control, read-out: Potency against urease IC50 ± SEM)
O=S(=O)(Oc1cccc(-c2nc3sccn3c2-c2ccccc2)c1)c1ccccc1 (as salt: benzenesulfonate) [Compound 1e, 3-(5-Phenylimidazo[2,1-b]thiazol-6-yl)phenyl benzenesulfonate] | 119 to 122 °C |  |  |  |  |  | 
O=S(=O)(Oc1cccc(-c2nc3sccn3c2-c2ccccc2)c1)c1ccc(F)cc1 (as salt: benzenesulfonate) [Compound 1f, 3-(5-Phenylimidazo[2,1-b]thiazol-6-yl)phenyl 4-fluorobenzenesulfonate] | 109 to 111 °C |  |  |  |  |  | 
CS(=O)(=O)c1cccc(-c2c(-c3cccc(OS(=O)(=O)c4ccccc4)c3)nc3sccn23)c1 (as salt: benzenesulfonate) [Compound 2e, 3-(5-(3-(Methylsulfonyl)phenyl)imidazo[2,1-b]thiazol-6-yl)phenyl benzenesulfonate] | 193 to 195 °C |  |  |  |  |  | 
CS(=O)(=O)c1cccc(-c2c(-c3cccc(OS(=O)(=O)c4ccc(F)cc4)c3)nc3sccn23)c1 (as salt: benzenesulfonate) [Compound 2f, 3-(5-(3-(Methylsulfonyl)phenyl)imidazo[2,1-b]thiazol-6-yl)phenyl 4-fluorobenzenesulfonate] | 103 to 105 °C |  |  |  |  |  | 
CCS(=O)(=O)Oc1cccc(-c2nc3sccn3c2-c2ccccc2)c1 [Compound 1b, 3-(5-Phenylimidazo[2,1-b]thiazol-6-yl)phenyl ethanesulfonate] | 119 to 121 °C | 4.01 ± 0.11 µM | 800 µM | 82 ± 29 µM |  |  | 
CCCS(=O)(=O)Oc1cccc(-c2nc3sccn3c2-c2ccccc2)c1 [Compound 1c, 3-(5-Phenylimidazo[2,1-b]thiazol-6-yl)phenyl propane-1-sulfonate] | 120 to 123 °C | 4.04 ± 0.09 µM | 800 µM (≈ 319 µg/mL) | 364 µM |  |  | 
O=S(=O)(Oc1cccc(-c2nc3sccn3c2-c2ccccc2)c1)c1ccccc1 [Compound 1e, 3-(5-Phenylimidazo[2,1-b]thiazol-6-yl)phenyl benzenesulfonate] |  | 4.3 ± 0.01 µM | 400 µM | 153 ± 33 µM |  |  | 
O=S(=O)(Oc1cccc(-c2nc3sccn3c2-c2ccccc2)c1)c1ccc(F)cc1 [Compound 1f, 3-(5-Phenylimidazo[2,1-b]thiazol-6-yl)phenyl 4-fluorobenzenesulfonate] |  | 5.17 ± 0.01 µM | 200 µM (≈ 90.1 µg/mL) | 147 µM |  |  | 
Cc1ccc(S(=O)(=O)Oc2cccc(-c3nc4sccn4c3-c3ccccc3)c2)cc1 [Compound 1g, 3-(5-Phenylimidazo[2,1-b]thiazol-6-yl)phenyl 4-methylbenzenesulfonate] | 103 to 106 °C | 3.22 ± 0.06 µM | 150 ± 29 µM (≈ 67 µg/mL) | 37 ± 6 µM |  |  | 
CNS(=O)(=O)Oc1cccc(-c2nc3sccn3c2-c2ccccc2)c1 [Compound 1i, 3-(5-Phenylimidazo[2,1-b]thiazol-6-yl)phenyl methylsulfamate] | 161 to 164 °C | 5.51 ± 0.17 µM | 800 µM (≈ 308 µg/mL) | 285 ± 92 µM |  |  | 
O=S(=O)(Oc1cccc(-c2nc3sccn3c2-c2ccccc2)c1)N1CCCCC1 [Compound 1j, 3-(5-Phenylimidazo[2,1-b]thiazol-6-yl)phenyl piperidine-1-sulfonate] | 112 to 115 °C | 6.97 ± 0.09 µM | 200 µM (≈ 87.9 µg/mL) | 131 ± 2 µM |  |  | 
CS(=O)(=O)Oc1cccc(-c2nc3sccn3c2-c2cccc(S(C)(=O)=O)c2)c1 [Compound 2a, 3-(5-(3-(Methylsulfonyl)phenyl)imidazo[2,1-b]thiazol-6-yl)phenyl methanesulfonate] | 159 to 160 °C | 5.01 ± 0.03 µM | 250 ± 50 µM | 118 ± 5 µM |  |  | 
CCS(=O)(=O)Oc1cccc(-c2nc3sccn3c2-c2cccc(S(C)(=O)=O)c2)c1 [Compound 2b, 3-(5-(3-(Methylsulfonyl)phenyl)imidazo[2,1-b]thiazol-6-yl)phenyl ethanesulfonate] | 206 to 209 °C | 4.97 ± 0.11 µM | 800 µM | 255 ± 35 µM |  |  | 
CS(=O)(=O)c1cccc(-c2c(-c3cccc(OS(=O)(=O)c4ccccc4)c3)nc3sccn23)c1 [Compound 2e, 3-(5-(3-(Methylsulfonyl)phenyl)imidazo[2,1-b]thiazol-6-yl)phenyl benzenesulfonate] |  | 5.21 ± 0.03 µM | 409 ± 391 µM | 331 ± 21 µM |  |  | 
Cc1ccc(S(=O)(=O)Oc2cccc(-c3nc4sccn4c3-c3cccc(S(C)(=O)=O)c3)c2)cc1 [Compound 2g, 3-(5-(3-(Methylsulfonyl)phenyl)imidazo[2,1-b]thiazol-6-yl)phenyl 4-methylbenzenesulfonate] | 172 to 174 °C | 5.59 ± 0.04 µM | 275 ± 125 µM (≈ 144 µg/mL) | 103 ± 88 µM |  |  | 
CS(=O)(=O)c1cccc(-c2c(-c3cccc(OS(N)(=O)=O)c3)nc3sccn23)c1 [Compound 2h, 3-(5-(3-(Methylsulfonyl)phenyl)imidazo[2,1-b]thiazol-6-yl)phenyl sulfamate] | 150 to 153 °C | 4.72 ± 0.13 µM | 400 µM (≈ 180 µg/mL) | 225 ± 5 µM |  |  | 
CNS(=O)(=O)Oc1cccc(-c2nc3sccn3c2-c2cccc(S(C)(=O)=O)c2)c1 [Compound 2i, 3-(5-(3-(Methylsulfonyl)phenyl)imidazo[2,1-b]thiazol-6-yl)phenyl methylsulfamate] | > 250 °C | 4.74 ± 0.21 µM | 250 ± 50 µM (≈ 116 µg/mL) | 123 ± 15 µM |  |  | 
CS(=O)(=O)c1cccc(-c2c(-c3cccc(OS(=O)(=O)N4CCCCC4)c3)nc3sccn23)c1 [Compound 2j, 3-(5-(3-(Methylsulfonyl)phenyl)imidazo[2,1-b]thiazol-6-yl)phenyl piperidine-1-sulfonate] | 76 to 79 °C | 5.82 ± 0.02 µM | 800 µM (≈ 414 µg/mL) | 288 ± 18 µM |  |  | 
CC(CCc1ccccc1)NCC(O)c1ccc(O)c(C(N)=O)c1 (centres unmarked) [Labetalol, reference compound] |  |  |  |  | 19.2 ± 0.56 ×10⁻⁶ cm/s | 99.1% | 
CC(C)NCC(O)COc1cccc2ccccc12 (centres unmarked) [Propranolol, reference compound] |  |  |  |  | 39 ± 0.44 ×10⁻⁶ cm/s | 88.7% | 
NC(N)=S [thiourea, reference compound] |  |  |  |  |  |  | 22.3 ± 0.031 µM
